Measured values reported in patent EP4656642A1, “ESTROGEN RECEPTOR PROTEOLYSIS TARGETING CHIMERA COMPOUND AND USE THEREOF” (GAN & LEE PHARM CO., LTD, priority 2023, dated 2024).

Legend:
Assay type in all cases: cell-based
[1] = test system: T-47D cells; assay: Inhibition of cell proliferation in T-47D cells (CCK-8, 6 days); conditions: 6 days of treatment
Method in brief: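 Viability read-out was CCK-8 after 6 days of compound treatment (37 °C, 5% CO2) across graded concentrations. Cells were T-47D seeded at 3,000 per well in 1640 medium plus 10% FBS. IC50 was calculated against proliferation.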

[2] = molecular target: T1, ERα (Homo sapiens, UniProt P03372); assay: Degradation of ERα in MCF-7 cells (immunoblotting, 4 h)
T1 sequence (P03372 1-595): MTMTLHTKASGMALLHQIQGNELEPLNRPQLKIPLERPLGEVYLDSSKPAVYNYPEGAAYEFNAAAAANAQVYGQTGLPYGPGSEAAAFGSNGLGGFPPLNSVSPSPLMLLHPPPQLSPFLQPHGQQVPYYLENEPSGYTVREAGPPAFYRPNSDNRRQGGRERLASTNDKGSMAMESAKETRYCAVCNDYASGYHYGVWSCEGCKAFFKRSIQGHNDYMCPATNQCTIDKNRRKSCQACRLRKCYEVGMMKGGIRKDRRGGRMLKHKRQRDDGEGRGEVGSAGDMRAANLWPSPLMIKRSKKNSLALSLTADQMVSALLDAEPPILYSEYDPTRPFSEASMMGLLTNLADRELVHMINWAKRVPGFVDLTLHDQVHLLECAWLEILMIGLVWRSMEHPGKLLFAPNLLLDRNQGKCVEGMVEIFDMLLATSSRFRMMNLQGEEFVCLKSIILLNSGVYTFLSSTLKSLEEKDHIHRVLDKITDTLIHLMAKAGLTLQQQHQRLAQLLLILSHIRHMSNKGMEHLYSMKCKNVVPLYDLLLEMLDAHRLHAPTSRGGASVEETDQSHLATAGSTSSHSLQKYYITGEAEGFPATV
Method in brief: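 Degradation rate reflects ERα band intensity, corrected to an internal reference protein, relative to control. Values come from Western blotting of lysates from MCF-7 cells exposed 4 h at 37°C to compounds at final concentrations of 0.15-1000nM.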

[3] = test system: MCF-7 cells; assay: Inhibition of cell proliferation of MCF-7 cells (CCK-8, 9 days)
Method in brief: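 Read-out was CCK-8 viability after 9-day continuous exposure (37°C, 5% CO2) of MCF-7 cells plated at 800/well in 10% FBS DMEM across several compound concentrations. Values are proliferation IC50s.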

[4] = molecular target: T1, ERα; assay: Degradation of ERα in T-47D cells (immunoblotting, 4 h); design: host or cells: T-47D
Method in brief: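 ERα protein levels were assessed by immunoblot of RIPA lysates (with protease inhibitor) after 4 h exposure at 37°C. Compound was added in DMSO to T-47D cells at final concentrations of 0.15-1000 nM.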

[5] = treated for 9 days, CCK-8 kit (Table 6)
[6] = 9 days of treatment, CCK-8, Table 5

IC50 ([1]; Table 3) [nM] | Degradation rate (%) of ERα in MCF-7 cells ([2]; 1nM compound) [%] | Degradation rate (%) of ERα in MCF-7 cells ([2]; 10nM compound) [%] | IC50 [3, 5] [nM] | Degradation rate (%) of ERα in T-47D cells ([4]; 1nM compound) [%] | Degradation rate (%) of ERα in T-47D cells ([4]; 10nM compound) [%] | IC50 ([1]; Table 2) [nM] | IC50 [3, 6] [nM] | SMILES
2.01 | 15 | 63 | 59.4 | 40 | 78 | – | – | C[C@@H]1Cc2c([nH]c3ccccc23)[C@@H](c2c(F)cc(N3CCC4(CCN(CC(=O)N5CCC6(CC5)COc5c6ccc6c5CN(C5CCC(=O)NC5=O)C6=O)CC4)CC3)cc2F)N1CC(F)F (stereo partly drawn) [A112]
4.61 | 4 | 52 | 21.6 | 26 | 64 | – | – | CCOC(=O)[C@H]1CC(N2CCC3(CC2)COc2c3ccc3c2CN(C2CCC(=O)NC2=O)C3=O)CCN1C1CC2(CCN(c3ccc([C@@H]4c5ccc(O)cc5CC[C@@H]4c4ccccc4)cc3)CC2)C1 (stereo partly drawn) [A113]
1.18 | 46 | 62 | 10.3 | 48 | 73 | – | – | C[C@@H]1Cc2c([nH]c3ccccc23)[C@@H](c2c(F)cc(N3CCN(C[C@H]4CC[C@H](C(=O)N5CCC6(CC5)COc5c6ccc6c5CN(C5CCC(=O)NC5=O)C6=O)CC4)CC3)cc2F)N1CC(F)F (stereo partly drawn) [A114]
10.9 | 0 | 16 | 60.6 | 17 | 43 | – | – | O=C1CCC(N2Cc3c(ccc4c3OCC43CCN(C[C@H]4CC[C@H](C#Cc5ccc([C@@H]6c7ccc(O)cc7CC[C@@H]6c6ccccc6)cc5)CC4)CC3)C2=O)C(=O)N1 (stereo partly drawn) [A115]
1.61 | 25 | 4 | 25200 | 28 | 23 | – | – | O=C1CCC(N2Cc3c(ccc4c3OCC43CCN(C4CCN(CC5CCN(c6ccc([C@@H]7c8ccc(O)cc8CC[C@@H]7c7ccccc7)cc6)CC5)C(=O)C4)CC3)C2=O)C(=O)N1 (stereo partly drawn) [A116]
10.1 | 48 | 47 | 63.3 | 66 | 77 | – | – | C[C@@H]1Cc2c(ccc3[nH]ncc23)[C@@H](c2ccc(N3CCN(C[C@H]4CC[C@H](C(=O)N5CCC6(CC5)COc5c6ccc6c5CN(C5CCC(=O)NC5=O)C6=O)CC4)CC3)cn2)N1CC(F)(F)F (stereo partly drawn) [A117]
1.34 | 29 | 61 | 164 | 66 | 84 | – | – | O=C1CCC(N2Cc3c(ccc4c3OCC43CCN(C(=O)CC4CCN(C(=O)C5CCN(c6ccc([C@@H]7c8ccc(O)cc8CC[C@@H]7c7ccccc7)cc6)CC5)CC4)CC3)C2=O)C(=O)N1 (stereo partly drawn) [A123]
– | – | -6 | > 100 | – | 19 | 1000 | – | O=C1CCC(N2C(=O)c3cc4c(cc3C2=O)OC2(CC4)CN(C3CCC4(CC3)CN(c3ccc(C5c6ccc(O)cc6CCC5c5ccccc5)cc3)C4)C2)C(=O)N1 (stereo not drawn) [B7]
31 | – | 16 | 6.57 | – | 33 | 2.9 | 90 | O=C1CCC(N2Cc3cc4c(cc3C2=O)OC2(CC4)CN(C3CCC4(CC3)CN(c3ccc(C5c6ccc(O)cc6CCC5c5ccccc5)cc3)C4)C2)C(=O)N1 (stereo not drawn) [B8]
7 | 0 | 17 | 86 | 16 | 45 | – | – | O=C1CCC(N2Cc3cc4c(cc3C2=O)OC2(CC4)CN(C3CCC4(CC3)CN(c3ccc([C@@H]5c6ccc(O)cc6CC[C@@H]5c5ccccc5)cc3)C4)C2)C(=O)N1 (stereo partly drawn) [B9]
3 | 3 | 23 | 37 | 5 | 46 | 6.6 | 40 | O=C1CCC(N2Cc3cc4c(cc3C2=O)CCC2(CN(C3CCC5(CC3)CN(c3ccc([C@@H]6c7ccc(O)cc7CC[C@@H]6c6ccccc6)cc3)C5)C2)O4)C(=O)N1 (stereo partly drawn) [B10]
55 | -40 | -16 | 4610 | -34 | -38 | – | – | O=C1CCC(N2C(=O)c3cc4c(cc3C2=O)OC2(CC4)CN(CC3CC4(CCN(c5ccc([C@@H]6c7ccc(O)cc7CC[C@@H]6c6ccccc6)cc5)CC4)C3)C2)C(=O)N1 (stereo partly drawn) [B11]
33 | -8 | -11 | 950 | -17 | -4 | – | – | O=C1CCC(N2Cc3cc4c(cc3C2=O)CCC2(CN(CC3CC5(CCN(c6ccc([C@@H]7c8ccc(O)cc8CC[C@@H]7c7ccccc7)cc6)CC5)C3)C2)O4)C(=O)N1 (stereo partly drawn) [B12]
31.7 | -13 | -18 | 48.3 | -4 | 3 | – | – | O=C1CCC(N2Cc3cc4c(cc3C2=O)CCC2(CN(C3CCC(N5CCN(c6ccc([C@@H]7c8ccc(O)cc8CC[C@@H]7c7ccccc7)cc6)CC5)CC3)C2)O4)C(=O)N1 (stereo partly drawn) [B15]
1.03 | 55 | 55 | 21700 | 54 | 68 | – | – | C[C@H]1CN(c2ccc([C@@H]3c4ccc(O)cc4CC[C@@H]3c3ccccc3)cc2)CCN1C[C@H]1CC[C@H](C(=O)N2CCC3(CC2)COc2c3ccc3c2CN(C2CCC(=O)NC2=O)C3=O)CC1 (stereo partly drawn) [B36]
8.54 | 11 | 41 | 2800 | 12 | 36 | – | – | CC1(CN2CCC3(CC2)COc2c3ccc3c2CN(C2CCC(=O)NC2=O)C3=O)CCN(CC2CCN(c3ccc([C@@H]4c5ccc(O)cc5CC[C@@H]4c4ccccc4)cc3)CC2)CC1 (stereo partly drawn) [B37]
1.23 | 63 | 57 | 90.5 | 57 | 63 | – | – | C[C@@H]1Cc2c(ccc3[nH]ncc23)[C@@H](c2c(F)cc(N3CCC(C(=O)N4CCC(N5CCC6(CC5)COc5c6ccc6c5CN(C5CCC(=O)NC5=O)C6=O)CC4)CC3)cc2F)N1CC(F)F (stereo partly drawn) [B38]
1.83 | 41 | 49 | 25100 | 47 | 66 | – | – | O=C1CCC(N2Cc3c(ccc4c3OCC43CCN(C(=O)c4ccc(CN5CCN(c6ccc([C@@H]7c8ccc(O)cc8CC[C@@H]7c7ccccc7)cc6)CC5)cc4)CC3)C2=O)C(=O)N1 (stereo partly drawn) [B39]
1 | 54 | 61 | 45.3 | 64 | 68 | – | – | C[C@@H]1CN(C(=O)C2CCN(c3cc(F)c(C4c5ccc6[nH]ncc6c5C[C@@H](C)N4CC(F)F)c(F)c3)CC2)CCC1N1CCC2(CC1)COc1c2ccc2c1CN(C1CCC(=O)NC1=O)C2=O (stereo partly drawn) [B40]
0.75 | 59 | 53 | 29200 | 66 | 74 | – | – | O=C1CCC(N2Cc3c(ccc4c3OCC43CCN(C(=O)c4ccc(CN5CCN(c6ccc([C@@H]7c8ccc(O)cc8CC[C@@H]7c7ccccc7)cc6)CC5)cn4)CC3)C2=O)C(=O)N1 (stereo partly drawn) [B41]
